Data as given in PubChem BioAssay AID248 (DTP/NCI, 2004).
“And” between values parts separate entries of the source, which are not always exact repeats. Identical values can stand only once. Toxic doses and inconclusive results are not listed.

System: L1210 leukemia ip in BDF1 mice, survival T/C
Assay: NCI In Vivo Anticancer Drug Screen. Data for tumor model L1210 Leukemia (intraperitoneal) in B6D2F1 (BDF1) mice
Details: endpoint: mean survival time, higher = longer survival
How it was run: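 Transplanted-tumor mice were given test agent; controls received vehicle only. Survival readings from the two groups were divided (treated over control).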

[1] = dose: 75.0 mg/kg/injection, schedule: Q01DX001 (ip), vehicle: saline
[2] = dose: 150.0 mg/kg/injection, schedule: Q01DX001 (ip), vehicle: saline
[3] = dose: 300.0 mg/kg/injection, schedule: Q01DX001 (ip), vehicle: saline
[4] = dose: 25.0 mg/kg/injection, schedule: Q04DX003 (ip), vehicle: saline
[5] = dose: 50.0 mg/kg/injection, schedule: Q04DX003 (ip), vehicle: saline
[6] = dose: 25.0 mg/kg/injection, schedule: Q01DX009 (ip), vehicle: Klucel (hydroxypropylcellulose) (HPC)
[7] = dose: 50.0 mg/kg/injection, schedule: Q01DX009 (ip), vehicle: Klucel (hydroxypropylcellulose) (HPC)
[8] = dose: 100.0 mg/kg/injection, schedule: Q04DX002 (ip), vehicle: Klucel (hydroxypropylcellulose) (HPC)
[9] = dose: 100.0 mg/kg/injection, schedule: Q01DX009 (ip), vehicle: Klucel (hydroxypropylcellulose) (HPC)
[10] = dose: 200.0 mg/kg/injection, schedule: Q01DX009 (ip), vehicle: Klucel (hydroxypropylcellulose) (HPC)
[11] = dose: 400.0 mg/kg/injection, schedule: Q01DX009 (ip), vehicle: Klucel (hydroxypropylcellulose) (HPC)
[12] = dose: 100.0 mg/kg/injection, schedule: Q04DX003 (ip), vehicle: saline
[13] = dose: 50.0 mg/kg/injection, schedule: Q01DX009 (ip), vehicle: saline with Tween-80
[14] = dose: 100.0 mg/kg/injection, schedule: Q04DX003 (ip), vehicle: Klucel (hydroxypropylcellulose) (HPC)
[15] = dose: 200.0 mg/kg/injection, schedule: Q04DX003 (ip), vehicle: Klucel (hydroxypropylcellulose) (HPC)
[16] = dose: 400.0 mg/kg/injection, schedule: Q04DX003 (ip), vehicle: Klucel (hydroxypropylcellulose) (HPC)
[17] = dose: 100.0 mg/kg/injection, schedule: Q01DX009 (ip), vehicle: saline with Tween-80
[18] = dose: 100.0 mg/kg/injection, schedule: Q04DX003 (ip), vehicle: saline with Tween-80
[19] = dose: 200.0 mg/kg/injection, schedule: Q01DX009 (ip), vehicle: saline with Tween-80
[20] = dose: 200.0 mg/kg/injection, schedule: Q04DX003 (ip), vehicle: saline with Tween-80
[21] = dose: 200.0 mg/kg/injection, schedule: Q04DX003 (ip), vehicle: saline
[22] = dose: 100.0 mg/kg/injection, schedule: Q04DX002 (ip), vehicle: saline
[23] = dose: 100.0 mg/kg/injection, schedule: Q01DX001 (ip), vehicle: carboxymethylcellulose (CMC)
[24] = dose: 200.0 mg/kg/injection, schedule: Q01DX001 (ip), vehicle: carboxymethylcellulose (CMC)
[25] = dose: 400.0 mg/kg/injection, schedule: Q01DX001 (ip), vehicle: carboxymethylcellulose (CMC)

## N#C/C(=C/c1cc([N+](=O)[O-])c(O)c([N+](=O)[O-])c1)C(N)=O
[1]
  T/C: 96 % of control
[2]
  T/C: 98 % of control
[3]
  T/C: 95 % of control

## CCCCn1ccnc1C
dose: 6.25 mg/kg/injection, schedule: Q04DX003 (ip), vehicle: saline
  T/C: 113 % of control and 90 % of control
dose: 12.5 mg/kg/injection, schedule: Q04DX003 (ip), vehicle: saline
  T/C: 93 % of control and 107 % of control
[4]
  T/C: 113 % of control and 265 % of control and 89 % of control
[5]
  T/C: 106 % of control and 289 % of control

## CN(C)N=Nc1cn(C)c(=O)[nH]c1=O
dose: 50.0 mg/kg/injection, schedule: Q04DX003 (ip), vehicle: water
  T/C: 114 % of control
dose: 400.0 mg/kg/injection, schedule: Q04DX003 (ip), vehicle: water
  T/C: 112 % of control

## CC(C)=CCC(N)C(C)c1ccccc1 (configuration not stated)
dose: 12.5 mg/kg/injection, schedule: Q01DX009 (ip), vehicle: Klucel (hydroxypropylcellulose) (HPC)
  T/C: 96 % of control
[6]
  T/C: 98 % of control
dose: 25.0 mg/kg/injection, schedule: Q04DX002 (ip), vehicle: Klucel (hydroxypropylcellulose) (HPC)
  T/C: 94 % of control
[7]
  T/C: 104 % of control
dose: 50.0 mg/kg/injection, schedule: Q04DX002 (ip), vehicle: Klucel (hydroxypropylcellulose) (HPC)
  T/C: 105 % of control
[8]
  T/C: 102 % of control

## O=C(Nc1ccc(O)cc1)Nc1cccc(Cl)c1Cl
[9]
  T/C: 97 % of control
[10]
  T/C: 92 % of control
[11]
  T/C: 103 % of control

## N#CC1C2CCC(C2)C1CCCN (configuration not stated)
dose: 25.0 mg/kg/injection, schedule: Q01DX009 (ip), vehicle: saline
  T/C: 108 % of control
[4]
  T/C: 102 % of control
dose: 50.0 mg/kg/injection, schedule: Q01DX009 (ip), vehicle: saline
  T/C: 106 % of control
[5]
  T/C: 95 % of control
dose: 100.0 mg/kg/injection, schedule: Q01DX009 (ip), vehicle: saline
  T/C: 98 % of control
[12]
  T/C: 95 % of control and 115 % of control

## c1ccc([C@H]2O[C@@H]2c2ccccc2)cc1
dose: 12.5 mg/kg/injection, schedule: Q01DX009 (ip), vehicle: saline with Tween-80
  T/C: 91 % of control
dose: 12.5 mg/kg/injection, schedule: Q04DX003 (ip), vehicle: saline with Tween-80
  T/C: 96 % of control
dose: 25.0 mg/kg/injection, schedule: Q01DX009 (ip), vehicle: saline with Tween-80
  T/C: 96 % of control
dose: 25.0 mg/kg/injection, schedule: Q04DX003 (ip), vehicle: saline with Tween-80
  T/C: 93 % of control
[13]
  T/C: 94 % of control
dose: 50.0 mg/kg/injection, schedule: Q04DX003 (ip), vehicle: saline with Tween-80
  T/C: 96 % of control
dose: 100.0 mg/kg/injection, schedule: Q01DX001 (ip), vehicle: Klucel (hydroxypropylcellulose) (HPC)
  T/C: 97 % of control
[14]
  T/C: 92 % of control
dose: 200.0 mg/kg/injection, schedule: Q01DX001 (ip), vehicle: Klucel (hydroxypropylcellulose) (HPC)
  T/C: 101 % of control
[15]
  T/C: 101 % of control
dose: 400.0 mg/kg/injection, schedule: Q01DX001 (ip), vehicle: Klucel (hydroxypropylcellulose) (HPC)
  T/C: 103 % of control
[16]
  T/C: 97 % of control

## CCCCOC(=O)CCCC(=O)OCCCC
[9]
  T/C: 98 % of control
[14]
  T/C: 100 % of control
[10]
  T/C: 97 % of control
[15]
  T/C: 101 % of control
[11]
  T/C: 95 % of control
[16]
  T/C: 101 % of control

## O=C(Nc1cccc2nsnc12)c1ccc(C(=O)Nc2cccc3nsnc23)cc1
dose: 100.0 mg/kg/injection, schedule: Q01DX001 (ip), vehicle: other
  T/C: 94 % of control
dose: 200.0 mg/kg/injection, schedule: Q01DX001 (ip), vehicle: other
  T/C: 88 % of control
dose: 400.0 mg/kg/injection, schedule: Q01DX001 (ip), vehicle: other
  T/C: 98 % of control

## CCCCc1ccc(Sc2cccc3c2C(=O)c2c(Sc4ccc(CCCC)cc4)cccc2C3=O)cc1
[17]
  T/C: 97 % of control
[18]
  T/C: 93 % of control
[19]
  T/C: 102 % of control
[20]
  T/C: 97 % of control
dose: 400.0 mg/kg/injection, schedule: Q01DX009 (ip), vehicle: saline with Tween-80
  T/C: 92 % of control
dose: 400.0 mg/kg/injection, schedule: Q04DX003 (ip), vehicle: saline with Tween-80
  T/C: 97 % of control

## CCN(CC)C(C)CN1c2ccccc2Sc2ccccc21 (configuration not stated)
[6]
  T/C: 97 % of control
[4]
  T/C: 88 % of control
[7]
  T/C: 94 % of control
[9]
  T/C: 103 % of control
[12]
  T/C: 96 % of control
[21]
  T/C: 93 % of control

## CCOc1ccccc1/C=N\N=C(N/N=C/c1ccccc1OCC)N/N=C/c1ccccc1OCC
dose: 60.0 mg/kg/injection, schedule: Q01DX Z (oral), vehicle: saline
  T/C: 91 % of control
dose: 120.0 mg/kg/injection, schedule: Q01DX Z (oral), vehicle: saline
  T/C: 100 % of control
dose: 240.0 mg/kg/injection, schedule: Q01DX Z (oral), vehicle: saline
  T/C: 95 % of control
dose: 480.0 mg/kg/injection, schedule: Q01DX Z (oral), vehicle: saline
  T/C: 95 % of control

## CCc1ccc(NC(=S)NC(=O)C(C)Oc2ccccc2)cc1 (configuration not stated)
[22]
  T/C: 110 % of control
dose: 200.0 mg/kg/injection, schedule: Q04DX002 (ip), vehicle: saline
  T/C: 103 % of control
dose: 400.0 mg/kg/injection, schedule: Q04DX002 (ip), vehicle: saline
  T/C: 90 % of control

## c1ccc(CNCc2ccccn2)nc1
dose: 50.0 mg/kg/injection, schedule: Q04DX002 (ip), vehicle: saline
  T/C: 95 % of control
[22]
  T/C: 101 % of control

## O=C1c2cccc3cccc(c23)C(=O)N1NCCO
[9]
  T/C: 93 % of control
[10]
  T/C: 89 % of control

## COC(=O)C(Br)C(Br)c1cc(OC)c(OC)c(OC)c1 (configuration not stated)
[23]
  T/C: 89 % of control
[24]
  T/C: 93 % of control
[25]
  T/C: 103 % of control

## C=CC1CN2CCC1CC2C(O)c1ccnc2ccc(OC)cc12 (configuration not stated) (tested in a mixture with another compound)
[7]
  T/C: 97 % of control and 95 % of control
[13]
  T/C: 95 % of control
dose: 50.0 mg/kg/injection, schedule: Q04DX003 (ip), vehicle: other
  T/C: 95 % of control
[1]
  T/C: 100 % of control and 99 % of control
[23]
  T/C: 98 % of control
dose: 100.0 mg/kg/injection, schedule: Q01DX001 (ip), vehicle: saline with Tween-80
  T/C: 96 % of control
[9]
  T/C: 97 % of control and 104 % of control
[17]
  T/C: 95 % of control
[8]
  T/C: 107 % of control
[14]
  T/C: 93 % of control
dose: 100.0 mg/kg/injection, schedule: Q04DX003 (ip), vehicle: other
  T/C: 103 % of control
[18]
  T/C: 103 % of control
[12]
  T/C: 102 % of control
[2]
  T/C: 86 % of control and 99 % of control
[24]
  T/C: 102 % of control
dose: 200.0 mg/kg/injection, schedule: Q01DX001 (ip), vehicle: saline with Tween-80
  T/C: 96 % of control
[10]
  T/C: 97 % of control
[19]
  T/C: 101 % of control
dose: 200.0 mg/kg/injection, schedule: Q04DX002 (ip), vehicle: Klucel (hydroxypropylcellulose) (HPC)
  T/C: 96 % of control
[15]
  T/C: 93 % of control
dose: 200.0 mg/kg/injection, schedule: Q04DX003 (ip), vehicle: other
  T/C: 93 % of control
[20]
  T/C: 87 % of control
[21]
  T/C: 96 % of control
[3]
  T/C: 89 % of control and 91 % of control
[25]
  T/C: 93 % of control
dose: 400.0 mg/kg/injection, schedule: Q01DX001 (ip), vehicle: saline with Tween-80
  T/C: 93 % of control
dose: 400.0 mg/kg/injection, schedule: Q04DX002 (ip), vehicle: Klucel (hydroxypropylcellulose) (HPC)
  T/C: 100 % of control

## c1ccc(C2NC2c2ccccc2)cc1 (configuration not stated)
dose: 50.0 mg/kg/injection, schedule: Q01DX001 (ip), vehicle: carboxymethylcellulose (CMC)
  T/C: 112 % of control
[23]
  T/C: 97 % of control
[14]
  T/C: 103 % of control
[24]
  T/C: 97 % of control
[15]
  T/C: 95 % of control
[16]
  T/C: 91 % of control

## CC(=O)CC(=O)N1CCCCC1C (configuration not stated)
[14]
  T/C: 104 % of control
[15]
  T/C: 101 % of control
[16]
  T/C: 97 % of control
